Measurements as given in patent US20240069010A1, “TISSUE ORGANOID BIOPRINTING AND HIGH-THROUGHPUT SCREENING METHODOLOGY” (priority 2020, published 2024).
Where two headings read alike, the source gives them in different places.

Assays:
BT-474 organoids [1] = test: Endpoint ATP-release assay (CellTiter-Glo) of organoid viability; format: cell-based; details: BT-474; for viability at 0.1 µM / viability at 1 µM / viability at 10 µM / viability at 50 µM: Homo sapiens
Experimental: All drug treatments of 3D organoids were performed in serum-free conditions in MammoCult™ medium supplemented with 1% antibiotic-antimycotic (Gibco 15240-062). A detailed protocol for the drug screening has been published previously in Phan, N. et al. supra; and Nguyen, H. T. L. & Soragni, supra. Briefly, the culture medium was fully removed three days after seeding and replaced with 100 μL of MammoCult™ medium containing the indicated treatments using an automated pipetting system (EpMotion® 96). After treatment, we transferred the organoids to the HSLCI for imaging. […] The media was aspirated from each well and replaced with 50 μL of 5 mg/mL Dispase (Thermo-Fisher) solution to digest the Matrigel. After a 25-minute incubation at 37° C., the plate was placed on an orbital shaker for 5 minutes at 80 RPM. We then added 30 μL of CellTiter-Glo® reagent (Promega), sealed the plate with film, covered the plate with foil to protect from light, shook the plate for 5 minutes at 80 RPM, and incubated at room temperature for an additional 20 minutes. We used a SpectraMax iD3 plate reader to measure luminescence. The program parameters for luminescence readings were 5 minutes of shaking prior to reading, reading all wavelengths, and integrating signal over 500 ms. Organoid viability within each well was calculated by dividing the luminescent signal from each well by the mean luminescence of the control (1% DMSO) wells. Two-tailed independent t-tests were performed to assess the statistical significance of the differences in organoid mass and cell viability. P-values less than 0.05 were deemed significant.

BT-474 organoids [2] = test: HSLCI mass tracking of bioprinted organoids in drug screening; format: cell-based; details: for Organoid Behavior (%) Lost Mass: mass loss >10%; for Organoid Behavior (%) Stable: mass change <10%; for Organoid Behavior (%) Gained Mass: mass increase >10%
Description: Cells were bioprinted using a CELLINK BioX with a Temperature-Controlled Printhead. Gcode files were written to print the desired single-layer geometry. We wrote standardized blocks of Gcode encode the print path for the repeated geometries. MATLAB (MathWorks, Inc.) was used to integrate these standardized blocks into full Gcode files with the defined coordinates for each well. We used 8-well plates when printing the larger constructs as the depth of the well in a standard 24-well plate prohibited the use of 0.5″ length needles. Large rings were necessary to deposit a sufficient number of cells for RNA-Seq and IHC. Four rings with a diameter of 14.5 mm were printed for RNA sequencing (approximately 200,000 cells total), while four sets of concentric 14.5 mm, 12.5 mm, and 10.5 mm diameter rings were used for IHC analysis (approximately 500,000 cells total). We printed mini-squares with side length 3.9 mm for drug screening and HSLCI imaging. The mini-squares were inscribed within the circular well with sides parallel to the sides of the well plate. The open center of the constructs facilitates automatic manipulation with fluid handling equipment while the sides of the square are positioned to maximize the number of organoids imaged by HSLCI. The bioprinting process utilized the same material deposited for manually seeded organoids. A single cell suspension, aggregates or clusters in a 3:4 mixture of MammoCult™ and Matrigel® was prepared on ice. After vortexing briefly to homogenize, the mixture was transferred into a 3 mL syringe by removing the plunger and capping the opposite end. Once the plunger was replaced, the syringe was inverted, and bubbles were forced out of the tip. The material was then transferred to a room temperature 3 mL bioprinter cartridge (CELLINK) by connecting the syringe and cartridge with a double-sided female Luer lock adapter (CELLINK). Any air bubbles in the syringe were removed and the loaded cartridge was incubated in a rotating incubator (Enviro-Genie, Scientific Industries) for 30 minutes at the print temperature.
During the incubation period, the printer was sterilized with the built-in UV irradiation function and the printhead was set to the print temperature. […] The well masks were autoclaved prior to use. The masks were inserted into the well plate and pressed in contact with the glass surface. Rubber bands were used to hold the masks in place and ensure conformal contact was maintained throughout the plasma treatment. The well plates were treated with oxygen plasma in a PE-25 (Plasma Etch) for 30-90 seconds, 15 minutes prior to bioprinting. After plasma treatment, the well plate was placed in the bioprinter and Automatic Bed Levelling (ABL) was performed.
Once the incubation period ended, we attached a 0.5″ 25-gauge needle and loaded the cartridge into the pre-cooled printhead. We primed the needle by extruding a small volume of material at 15 kPa prior to calibrating the printer. Just before printing, we cleared the needle of the gelled material by extruding a small volume using 40 kPa prior to starting the print. To create constructs of the appropriate thicknesses, prints in 8-well plates were extruded at 15 kPa while prints in 96-well plates were extruded at 12-15 kPa. […] After printing, the constructs were incubated at 37° C. for at least 30 minutes to solidify the matrix and 100 μL of MammoCult™ medium was then added.
The HSLCI platform was installed inside a standard cell culture incubator. For all growth kinetics studies and drug screening, organoids were imaged in 96-well glass-bottom plates (Cellvis P96-1.5H-N) using a 40× objective (Nikon, NA 0.75). Organoids were seeded as single-cell suspensions in a 3:4 mixture of MammoCult™ and Matrigel® as described above and were grown at 37° C. and 5% CO2 in MammoCult™ medium supplemented with 1% antibiotic-antimycotic (Gibco 15240-062).

[3] = listed as printed as 48 hours, relative to 1% DMSO, read-out: Comparisons of cell viability measures by ATP detection assay, Mean mass ± SD
[4] = 72 h of treatment, luminescence relative to 1% DMSO control, read-out: Organoid viability by endpoint ATP assay, Viability ± SD

Question: `CS(=O)(=O)CCNCc1ccc(-c2ccc3ncnc(Nc4ccc(OCc5cccc(F)c5)c(Cl)c4)c3c2)o1` [Lapatinib, lapatinib] was tested. Which “Organoid viability by endpoint ATP assay, Viability ± SD” value (BT-474 organoids [1]; 0.1 μM, 72 h of treatment, luminescence relative to 1% DMSO control) did it give?
Answer: Its value is “significant reductions in viability”.

Question: What about the viability at 0.1 µM (BT-474 organoids [1]; listed as printed as 48 hours, 0.1 μM, relative to 1% DMSO, read-out: Comparisons of cell viability measures by ATP detection assay, Mean mass ± SD) of the same compound?
Answer: Its viability at 0.1 µM is 70 ± 18%.

Question: What about the viability at 1 µM (BT-474 organoids [1]; [3]) of the same compound?
Answer: The viability at 1 µM was 43 ± 9%.

Question: What about the viability at 10 µM (BT-474 organoids [1]; [3]) of the same compound?
Answer: Its viability at 10 µM is 32 ± 4%.

Question: And the viability at 50 µM (BT-474 organoids [1]; [3])?
Answer: The viability at 50 µM was 9 ± 7%.

Question: What about the viability at 0.1 µM (BT-474 organoids [1]; 0.1 μM, 72 h of treatment, luminescence relative to 1% DMSO control, read-out: Organoid viability by endpoint ATP assay, Viability ± SD) of the same compound?
Answer: The viability at 0.1 µM was 70 ± 18%.

Question: And the viability at 1 µM (BT-474 organoids [1]; [4])?
Answer: The viability at 1 µM was 43 ± 9%.

Question: And the viability at 10 µM (BT-474 organoids [1]; [4])?
Answer: The viability at 10 µM was 32 ± 4%.

Question: And the viability at 50 µM (BT-474 organoids [1]; [4])?
Answer: Its viability at 50 µM is 9 ± 7%.

Question: And the “Mean mass of BT-474 organoids, Mean mass ± SD” value (“Mean mass … Mean mass ± SD” below) (BT-474 organoids [2]; 0.1 μM, 6 hours of treatment)?
Answer: Its value is 1.84 ± 1.21 ng.

Question: And the “Mean mass … Mean mass ± SD” value (BT-474 organoids [2]; 0.1 μM, 48 hours of treatment)?
Answer: Its value is 2.33 ± 1.58 ng.

Question: And the “Mean mass … Mean mass ± SD” value (BT-474 organoids [2]; 1 μM, 6 hours of treatment)?
Answer: The value was 1.58 ± 0.78 ng.

Question: What about the “Mean mass … Mean mass ± SD” value (BT-474 organoids [2]; 1 μM, 48 hours of treatment) of the same compound?
Answer: The value was 1.48 ± 0.66 ng.

Question: And the “Mean mass … Mean mass ± SD” value (BT-474 organoids [2]; 10 μM, 6 hours of treatment)?
Answer: Its value is 1.74 ± 0.88 ng.

Question: What about the “Mean mass … Mean mass ± SD” value (BT-474 organoids [2]; 10 μM, 48 hours of treatment) of the same compound?
Answer: Its value is 1.42 ± 0.75 ng.

Question: And the “Mean mass … Mean mass ± SD” value (BT-474 organoids [2]; 50 μM, 6 hours of treatment)?
Answer: Its value is 1.58 ± 0.70 ng.

Question: What about the “Mean mass … Mean mass ± SD” value (BT-474 organoids [2]; 50 μM, 48 hours of treatment) of the same compound?
Answer: The value was 0.92 ± 0.48 ng.

Question: And the “Organoid Behavior (%) Lost Mass” value (BT-474 organoids [2]; BT-474 organoids, 0.1 μM, 12 h)?
Answer: Its value is 3.1%.

Question: And the “Organoid Behavior (%) Stable” value (BT-474 organoids [2]; BT-474 organoids, 0.1 μM, 24 h)?
Answer: Its value is 45.6%.

Question: And the “Organoid Behavior (%) Gained Mass” value (BT-474 organoids [2]; BT-474 organoids, 0.1 μM, 24 h)?
Answer: The value was 49.1%.

Question: What about the “Organoid Behavior (%) Lost Mass” value (BT-474 organoids [2]; BT-474 organoids, 0.1 μM, 24 h) of the same compound?
Answer: Its value is 5.3%.

Question: And the “Organoid Behavior (%) Stable” value (BT-474 organoids [2]; BT-474 organoids, 0.1 μM, 48 h)?
Answer: The value was 25.8%.

Question: What about the “Organoid Behavior (%) Gained Mass” value (BT-474 organoids [2]; BT-474 organoids, 0.1 μM, 48 h) of the same compound?
Answer: The value was 67.7%.

Question: What about the “Organoid Behavior (%) Lost Mass” value (BT-474 organoids [2]; BT-474 organoids, 0.1 μM, 48 h) of the same compound?
Answer: Its value is 6.5%.

Question: And the “Organoid Behavior (%) Lost Mass” value (BT-474 organoids [2]; BT-474 organoids, 1 μM, 12 h)?
Answer: Its value is 7.4%.

Question: What about the “Organoid Behavior (%) Stable” value (BT-474 organoids [2]; BT-474 organoids, 1 μM, 24 h) of the same compound?
Answer: Its value is 54.2%.

Question: What about the “Organoid Behavior (%) Gained Mass” value (BT-474 organoids [2]; BT-474 organoids, 1 μM, 24 h) of the same compound?
Answer: Its value is 20.3%.

Question: What about the “Organoid Behavior (%) Lost Mass” value (BT-474 organoids [2]; BT-474 organoids, 1 μM, 24 h) of the same compound?
Answer: Its value is 25.4%.

Question: What about the “Organoid Behavior (%) Stable” value (BT-474 organoids [2]; BT-474 organoids, 1 μM, 48 h) of the same compound?
Answer: The value was 50.0%.

Question: And the “Organoid Behavior (%) Gained Mass” value (BT-474 organoids [2]; BT-474 organoids, 1 μM, 48 h)?
Answer: The value was 27.5%.

Question: What about the “Organoid Behavior (%) Lost Mass” value (BT-474 organoids [2]; BT-474 organoids, 1 μM, 48 h) of the same compound?
Answer: Its value is 22.5%.

Question: And the “Organoid Behavior (%) Gained Mass” value (BT-474 organoids [2]; BT-474 organoids, 10 μM, 12 h)?
Answer: The value was 19.6%.

Question: And the “Organoid Behavior (%) Lost Mass” value (BT-474 organoids [2]; BT-474 organoids, 10 μM, 12 h)?
Answer: Its value is 7.1%.

Question: What about the “Organoid Behavior (%) Stable” value (BT-474 organoids [2]; BT-474 organoids, 10 μM, 24 h) of the same compound?
Answer: Its value is 60.3%.

Question: And the “Organoid Behavior (%) Gained Mass” value (BT-474 organoids [2]; BT-474 organoids, 10 μM, 24 h)?
Answer: The value was 9.5%.

Question: What about the “Organoid Behavior (%) Lost Mass” value (BT-474 organoids [2]; BT-474 organoids, 10 μM, 24 h) of the same compound?
Answer: The value was 30.2%.

Question: What about the “Organoid Behavior (%) Stable” value (BT-474 organoids [2]; BT-474 organoids, 10 μM, 48 h) of the same compound?
Answer: Its value is 47.2%.

Question: What about the “Organoid Behavior (%) Gained Mass” value (BT-474 organoids [2]; BT-474 organoids, 10 μM, 48 h) of the same compound?
Answer: The value was 15.1%.

Question: What about the “Organoid Behavior (%) Lost Mass” value (BT-474 organoids [2]; BT-474 organoids, 10 μM, 48 h) of the same compound?
Answer: The value was 37.7%.

Question: What about the “Organoid Behavior (%) Lost Mass” value (BT-474 organoids [2]; BT-474 organoids, 50 μM, 12 h) of the same compound?
Answer: Its value is 18.5%.

Question: What about the “Organoid Behavior (%) Stable” value (BT-474 organoids [2]; BT-474 organoids, 50 μM, 24 h) of the same compound?
Answer: The value was 55.6%.

Question: What about the “Organoid Behavior (%) Gained Mass” value (BT-474 organoids [2]; BT-474 organoids, 50 μM, 24 h) of the same compound?
Answer: Its value is 9.7%.

Question: What about the “Organoid Behavior (%) Lost Mass” value (BT-474 organoids [2]; BT-474 organoids, 50 μM, 24 h) of the same compound?
Answer: The value was 34.7%.

Question: What about the “Organoid Behavior (%) Gained Mass” value (BT-474 organoids [2]; BT-474 organoids, 50 μM, 48 h) of the same compound?
Answer: The value was 3.8%.

Question: What about the “Organoid Behavior (%) Lost Mass” value (BT-474 organoids [2]; BT-474 organoids, 50 μM, 48 h) of the same compound?
Answer: The value was 84.6%.

Question: What about the “lowest concentration at which organoids were affected (average mass)” value (BT-474 organoids [2]; BT-474 organoids, 48 h) of the same compound?
Answer: The value was 1 µM.
